What was measured:
HeLa cells = details: antiproliferative IC50, HeLa and A549 cells
[1] = test system: A549 non-small cell lung carcinoma cells; test: Intracellular concentration / cell uptake assessment by LC-MS; format: cell-based, human; details: 100 μM, 4 hours, compared to aglycone NHI-2 and to each other
[2] = molecular target: human lactate dehydrogenase hLDH5 (LDH-A4) (Homo sapiens, UniProt P00338); test: Enzyme inhibition assay, NADH-competition kinetics on purified hLDH5
GLUT1 = details: cited from earlier work; for Km: read-out: Km for GLUT1

## COC(=O)c1cc2c(C(F)(F)F)cc(-c3ccccc3)cc2n1O[C@H]1O[C@H](CO)[C@@H](O)[C@H](O)[C@@H]1O [Compound 2, Methyl 6-phenyl-4-(trifluoromethyl)-1-(((2R,3S,4S,5S,6R)-3,4,5-trihydroxy-6-(hydroxymethyl)tetrahydro-2H-pyran-2-yl)oxy)-1H-indole-2-carboxylate]
HeLa cells
  enhanced potency compared to NHI-2: 3–6 fold
[1]
  cell uptake (intracellular concentration, in words): significantly enhanced cell uptake

## COC(=O)c1cc2c(C(F)(F)F)cc(-c3ccccc3)cc2n1O[C@@H]1O[C@H](CO)[C@H](O)[C@@H](O)[C@H]1O [Compound 3, Methyl 6-phenyl-4-(trifluoromethyl)-1-(((2S,3R,4R,5R,6R)-3,4,5-trihydroxy-6-(hydroxymethyl)tetrahydro-2H-pyran-2-yl)oxy)-1H-indole-2-carboxylate]
HeLa cells
  enhanced potency compared to NHI-2: 2–3 fold
[1]
  cell uptake (intracellular concentration, in words): slightly lower levels of cell uptake

## COC(=O)c1cc2c(C(F)(F)F)cc(-c3ccccc3)cc2n1O[C@@H]1O[C@H](CO)[C@@H](O)[C@H](O)[C@H]1NC(C)=O [Compound 4, Methyl 1-(((2S,3R,4R,5S,6R)-3-acetamido-4,5-dihydroxy-6-(hydroxymethyl)tetrahydro-2H-pyran-2-yl)oxy)-6-phenyl-4-(trifluoromethyl)-1H-indole-2-carboxylate]
[2]
  Ki: 98.4 ± 15.6 µM

## OC[C@H]1OC(O)[C@@H](O)[C@@H](O)[C@@H]1O (stereo partly drawn) [Mannose, D-mannose]
GLUT1
  reduction of affinity for GLUT1 compared to glucose: 13 fold
  Km: 20 mM

## OC[C@H]1OC(O)[C@H](O)[C@@H](O)[C@@H]1O (some centres unmarked) [glucose]
GLUT1
  Km: 1.5 mM
